# Where a SMILES comes first, the peptide text is derived from it. [ ]: non-standard residue; d: D form. Aib = CC(C)(N)C(=O)O
# Columns and labels:
# [1] = in vivo; details: male, rat
# Protocol: Peptides were formulated in sterile saline and administered as a 3-hour intravenous infusion to non-fasted male Wistar Han or Sprague-Dawley rats (n=3 per group) via jugular vein cannula at a final dose of 0.3 or 0.1 mg/kg. […] Plasma was prepared by centrifugation and stored at −80° C. until analysis.
# Protein Precipitation: All 96-well plates were coated with a blocking agent to mitigate non-specific binding of peptides. Plasma samples (75 uL) were added to a 96-well plate containing 200 uL of 2:1 ethanol:acetonitrile containing 0.1% TFA and mixed well via aspiration. Plates were capped, vortex-mixed and centrifuged. Supernatants (215 uL) were transferred to a clean 96-well plate, evaporated to dryness under nitrogen flow and then reconstituted in 75 μL of 20% acetonitrile in water containing 0.10% formic acid.
# Solid-Phase Extraction: Samples were diluted 3-fold with 5% NH4OH (aq) and loaded onto an Oasis MAX microElution plate (Waters Corp, Milford, MA) that had been pre-conditioned with 200 uL each of methanol and 5% NH4OH (aq). The plate was washed with 200 uL 5% NH4OH (aq), followed by 200 uL 20% acetonitrile in water. […] Samples were reconstituted in 80 uL 0.1% formic acid in water.
# All calibration standards were prepared in control rat plasma containing K2EDTA and protease inhibitor cocktail. […] Samples were injected onto a 2.1×50 mm reverse phase C18 analytical column, typically a Waters ACQUITY UPLC™ HSS T3, 1.8 μm (Waters Corporation, Milford, MA) or similar. […] Typical flow rates were 600 L/min. The column temperature was held constant at 40 or 45° C. Peptides were quantified my monitoring one or more product ions produced from a multiply charged parent ion.
# [2] = target: human GLP-1R (Homo sapiens, UniProt P43220); assay: Peptide-receptor mediated cAMP accumulation (LANCE Ultra cAMP) in CHO-K1 cells transfected with human GLP-1R; format: cell-based; details: hGLP1 pEC50 (cAMP mean (n = 3): 11 point curve starting at 1 nM, Table 3)
# human GLP-1R, sequence (P43220 24-463): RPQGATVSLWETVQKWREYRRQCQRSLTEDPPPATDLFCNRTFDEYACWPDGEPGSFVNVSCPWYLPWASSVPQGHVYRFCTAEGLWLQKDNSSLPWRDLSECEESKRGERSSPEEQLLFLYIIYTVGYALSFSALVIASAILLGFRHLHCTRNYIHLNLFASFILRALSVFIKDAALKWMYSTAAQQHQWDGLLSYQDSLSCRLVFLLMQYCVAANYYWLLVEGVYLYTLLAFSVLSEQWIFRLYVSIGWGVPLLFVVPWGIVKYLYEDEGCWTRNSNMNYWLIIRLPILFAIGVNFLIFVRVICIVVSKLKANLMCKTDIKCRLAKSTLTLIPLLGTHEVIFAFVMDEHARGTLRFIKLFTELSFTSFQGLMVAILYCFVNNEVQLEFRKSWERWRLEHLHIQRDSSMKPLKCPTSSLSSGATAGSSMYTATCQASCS
Structure (SMILES),clearance [1],EC50 [2]
CC(C)C[C@H](NC(=O)[C@H](Cc1ccc(O)cc1)NC(=O)[C@H](CCCCN)NC(=O)[C@H](CO)NC(=O)[C@H](Cc1ccc(O)cc1)NC(=O)[C@H](CC(=O)O)NC(=O)[C@H](CO)NC(=O)[C@@H](NC(=O)[C@H](Cc1ccccc1)NC(=O)[C@@H](NC(=O)CNC(=O)[C@H](CCC(N)=O)NC(=O)[C@H](CO)NC(=O)[C@@H](N)Cc1c[nH]c2ccccc12)[C@@H](C)O)[C@@H](C)O)C(=O)N[C@@H](CC(=O)O)C(=O)NC(C)(C)C(=O)N[C@@H](CCCCN)C(=O)N[C@@H](CCCNC(=N)N)C(=O)N[C@@H](C)C(=O)N[C@@H](CCC(N)=O)C(=O)N[C@@H](CCC(=O)O)C(=O)N[C@@H](Cc1ccccc1)C(=O)N[C@H](C(=O)NC(C)(C)C(=O)N[C@@H](Cc1c[nH]c2ccccc12)C(=O)N[C@@H](CC(C)C)C(=O)N[C@@H](CCC(=O)O)C(=O)N[C@@H](CC(=O)O)C(=O)N[C@@H](CCC(=O)O)C(=O)N1CCC[C@H]1C(=O)N[C@@H](CO)C(=O)N[C@@H](CO)C(=O)NCC(=O)N[C@@H](CCCCN)C(=O)N1CCC[C@H]1C(=O)N1CCC[C@H]1C(=O)N1CCC[C@H]1C(=O)N[C@@H](CO)C(=O)O)C(C)C [Compound A91] (H-WSQGTFTSDYSKYLD[Aib]KRAQEFV[Aib]WLEDEPSSGKPPPS-OH; N-terminus assumed),13.7 mL/min/kg,> 1 nM
CC(C)C[C@H](NC(=O)[C@H](Cc1ccc(O)cc1)NC(=O)[C@H](CCCCN)NC(=O)[C@H](CO)NC(=O)[C@H](Cc1ccc(O)cc1)NC(=O)[C@H](CC(=O)O)NC(=O)[C@H](CO)NC(=O)[C@@H](NC(=O)[C@H](Cc1ccccc1)NC(=O)[C@@H](NC(=O)CNC(=O)[C@H](CCC(N)=O)NC(=O)[C@H](CO)NC(=O)[C@@H](N)Cc1ccc(O)cc1)[C@@H](C)O)[C@@H](C)O)C(=O)N[C@@H](CC(=O)O)C(=O)NC(C)(C)C(=O)N[C@@H](CCCCN)C(=O)N[C@@H](CCCNC(=N)N)C(=O)N[C@@H](C)C(=O)N[C@@H](CCC(N)=O)C(=O)N[C@@H](CCC(=O)O)C(=O)N[C@@H](Cc1ccccc1)C(=O)N[C@H](C(=O)NC(C)(C)C(=O)N[C@@H](Cc1c[nH]c2ccccc12)C(=O)N[C@@H](CC(C)C)C(=O)N[C@@H](CCC(=O)O)C(=O)N[C@@H](CC(=O)O)C(=O)N[C@@H](CCC(=O)O)C(=O)N1CCC[C@H]1C(=O)N[C@@H](CO)C(=O)N[C@@H](CO)C(=O)NCC(=O)N[C@@H](CCCCN)C(=O)N1CCC[C@H]1C(=O)N1CCC[C@H]1C(=O)N1CCC[C@H]1C(=O)N[C@@H](CO)C(=O)O)C(C)C [Compound A86] (H-YSQGTFTSDYSKYLD[Aib]KRAQEFV[Aib]WLEDEPSSGKPPPS-OH; N-terminus assumed),14.7 mL/min/kg,> 1 nM
CC(C)C[C@H](NC(=O)[C@H](Cc1ccc(O)cc1)NC(=O)[C@H](CCCCN)NC(=O)[C@H](CO)NC(=O)[C@H](Cc1ccc(O)cc1)NC(=O)[C@H](CC(=O)O)NC(=O)[C@H](CO)NC(=O)[C@@H](NC(=O)[C@H](Cc1ccccc1)NC(=O)[C@@H](NC(=O)CNC(=O)[C@H](Cc1c[nH]cn1)NC(=O)[C@H](CO)NC(=O)[C@@H](N)Cc1ccc(O)cc1)[C@@H](C)O)[C@@H](C)O)C(=O)N[C@@H](CC(=O)O)C(=O)N[C@@H](CO)C(=O)N[C@@H](C)C(=O)N[C@@H](CCCNC(=N)N)C(=O)N[C@@H](C)C(=O)N[C@@H](CCC(N)=O)C(=O)N[C@@H](CCC(=O)O)C(=O)N[C@@H](Cc1ccccc1)C(=O)N[C@H](C(=O)N[C@@H](CCCCN)C(=O)N[C@@H](Cc1c[nH]c2ccccc12)C(=O)N[C@@H](CC(C)C)C(=O)N[C@@H](CCC(=O)O)C(=O)N[C@@H](CC(=O)O)C(=O)N[C@@H](CCC(=O)O)C(=O)N1CCC[C@H]1C(=O)N[C@@H](CCCCN)C(=O)N[C@@H](CO)C(=O)N[C@@H](CCCCN)C(=O)N[C@@H](CCC(=O)O)C(=O)N1CCC[C@H]1C(=O)N1CCC[C@H]1C(=O)N1CCC[C@H]1C(=O)N[C@@H](CO)C(N)=O)C(C)C [Compound A72] (H-YSHGTFTSDYSKYLDSARAQEFVKWLEDEPKSKEPPPS-NH2),31.3 mL/min/kg,> 1 nM
CC(C)C[C@H](NC(=O)[C@H](Cc1ccc(O)cc1)NC(=O)[C@H](CCCCN)NC(=O)[C@H](CO)NC(=O)[C@H](Cc1ccc(O)cc1)NC(=O)[C@H](CC(=O)O)NC(=O)[C@H](CO)NC(=O)[C@@H](NC(=O)[C@H](Cc1ccccc1)NC(=O)[C@@H](NC(=O)CNC(=O)[C@H](Cc1c[nH]cn1)NC(=O)[C@H](CO)NC(=O)[C@@H](N)Cc1ccc(O)cc1)[C@@H](C)O)[C@@H](C)O)C(=O)N[C@@H](CC(=O)O)C(=O)NC(C)(C)C(=O)N[C@@H](CCCCN)C(=O)N[C@@H](CCCNC(=N)N)C(=O)N[C@@H](C)C(=O)N[C@@H](CCC(N)=O)C(=O)N[C@@H](CCC(=O)O)C(=O)N[C@@H](Cc1ccccc1)C(=O)N[C@H](C(=O)NC(C)(C)C(=O)N[C@@H](Cc1c[nH]c2ccccc12)C(=O)N[C@@H](CC(C)C)C(=O)N[C@@H](CCC(=O)O)C(=O)N[C@@H](CC(=O)O)C(=O)N[C@@H](CCC(=O)O)C(=O)N1CCC[C@H]1C(=O)N[C@@H](CCCCN)C(=O)N[C@@H](CO)C(=O)N[C@@H](CCCCN)C(=O)N[C@@H](CO)C(=O)N1CCC[C@H]1C(=O)N1CCC[C@H]1C(=O)N1CCC[C@H]1C(=O)N[C@@H](CO)C(=O)O)C(C)C [Compound A58] (H-YSHGTFTSDYSKYLD[Aib]KRAQEFV[Aib]WLEDEPKSKSPPPS-OH; N-terminus assumed),37.7 mL/min/kg,> 1 nM
CC(C)C[C@H](NC(=O)[C@H](Cc1ccc(O)cc1)NC(=O)[C@H](CCCCN)NC(=O)[C@H](CO)NC(=O)[C@H](Cc1ccc(O)cc1)NC(=O)[C@H](CC(=O)O)NC(=O)[C@H](CO)NC(=O)[C@@H](NC(=O)[C@H](Cc1ccccc1)NC(=O)[C@@H](NC(=O)CNC(=O)[C@H](CCC(N)=O)NC(=O)[C@H](CO)NC(=O)[C@@H](N)Cc1ccc(O)cc1)[C@@H](C)O)[C@@H](C)O)C(=O)N[C@@H](CC(=O)O)C(=O)NC(C)(C)C(=O)N[C@@H](CCCCN)C(=O)N[C@@H](C)C(=O)N[C@@H](C)C(=O)N[C@@H](CCC(N)=O)C(=O)N[C@@H](CCC(=O)O)C(=O)N[C@@H](Cc1ccccc1)C(=O)N[C@H](C(=O)NC(C)(C)C(=O)N[C@@H](Cc1c[nH]c2ccccc12)C(=O)N[C@@H](CC(C)C)C(=O)N[C@@H](CCC(=O)O)C(=O)N[C@@H](CC(=O)O)C(=O)N[C@@H](CCC(=O)O)C(=O)N1CCC[C@H]1C(=O)N[C@@H](CO)C(=O)N[C@@H](CO)C(=O)NCC(=O)N[C@@H](C)C(=O)N1CCC[C@H]1C(=O)N1CCC[C@H]1C(=O)N1CCC[C@H]1C(=O)N[C@@H](CO)C(=O)O)C(C)C [Compound A95] (H-YSQGTFTSDYSKYLD[Aib]KAAQEFV[Aib]WLEDEPSSGAPPPS-OH; N-terminus assumed),15.4 mL/min/kg,> 1 nM
CC(C)C[C@H](NC(=O)[C@H](Cc1ccc(O)cc1)NC(=O)[C@H](CCCCN)NC(=O)[C@H](CO)NC(=O)[C@H](Cc1ccc(O)cc1)NC(=O)[C@H](CC(=O)O)NC(=O)[C@H](CO)NC(=O)[C@@H](NC(=O)[C@H](Cc1ccccc1)NC(=O)[C@@H](NC(=O)CNC(=O)[C@H](Cc1c[nH]cn1)NC(=O)[C@H](CO)NC(=O)[C@@H](N)Cc1ccc(O)cc1)[C@@H](C)O)[C@@H](C)O)C(=O)N[C@@H](CC(=O)O)C(=O)NC(C)(C)C(=O)N[C@@H](CCCCN)C(=O)N[C@@H](C)C(=O)N[C@@H](C)C(=O)N[C@@H](CCC(N)=O)C(=O)N[C@@H](CCC(=O)O)C(=O)N[C@@H](Cc1ccccc1)C(=O)N[C@H](C(=O)NC(C)(C)C(=O)N[C@@H](Cc1c[nH]c2ccccc12)C(=O)N[C@@H](CC(C)C)C(=O)N[C@@H](CCC(=O)O)C(=O)N[C@@H](CC(=O)O)C(=O)N[C@@H](CCC(=O)O)C(=O)N1CCC[C@H]1C(=O)N[C@@H](CO)C(=O)N[C@@H](CO)C(=O)NCC(=O)N[C@@H](C)C(=O)N1CCC[C@H]1C(=O)N1CCC[C@H]1C(=O)N1CCC[C@H]1C(=O)N[C@@H](CO)C(=O)O)C(C)C [Compound A76] (H-YSHGTFTSDYSKYLD[Aib]KAAQEFV[Aib]WLEDEPSSGAPPPS-OH; N-terminus assumed),15.1 mL/min/kg,> 1 nM
CC(C)C[C@H](NC(=O)[C@H](Cc1ccc(O)cc1)NC(=O)[C@H](CCCCN)NC(=O)[C@H](CO)NC(=O)[C@H](Cc1ccc(O)cc1)NC(=O)[C@H](CC(=O)O)NC(=O)[C@H](CO)NC(=O)[C@@H](NC(=O)[C@H](Cc1ccccc1)NC(=O)[C@@H](NC(=O)CNC(=O)[C@H](Cc1c[nH]cn1)NC(=O)[C@H](CO)NC(=O)[C@@H](N)Cc1ccc(O)cc1)[C@@H](C)O)[C@@H](C)O)C(=O)N[C@@H](CC(=O)O)C(=O)NC(C)(C)C(=O)N[C@@H](CCCCN)C(=O)N[C@@H](CCCNC(=N)N)C(=O)N[C@@H](C)C(=O)N[C@@H](CCC(N)=O)C(=O)N[C@@H](CCC(=O)O)C(=O)N[C@@H](Cc1ccccc1)C(=O)N[C@H](C(=O)NC(C)(C)C(=O)N[C@@H](Cc1c[nH]c2ccccc12)C(=O)N[C@@H](CC(C)C)C(=O)N[C@@H](CCC(=O)O)C(=O)N[C@@H](CC(=O)O)C(=O)N[C@@H](CCC(=O)O)C(=O)NCC(=O)N1CCC[C@H]1C(=O)N[C@@H](CO)C(=O)N[C@@H](CO)C(=O)NCC(=O)N[C@@H](C)C(=O)N1CCC[C@H]1C(=O)N1CCC[C@H]1C(=O)N1CCC[C@H]1C(=O)N[C@@H](CO)C(=O)O)C(C)C [Compound A28] (H-YSHGTFTSDYSKYLD[Aib]KRAQEFV[Aib]WLEDEGPSSGAPPPS-OH),34.7 mL/min/kg,> 1 nM
CC(C)C[C@H](NC(=O)[C@H](Cc1ccc(O)cc1)NC(=O)[C@H](CCCCN)NC(=O)[C@H](CO)NC(=O)[C@H](Cc1ccc(O)cc1)NC(=O)[C@H](CC(=O)O)NC(=O)[C@H](CO)NC(=O)[C@@H](NC(=O)[C@H](Cc1ccccc1)NC(=O)[C@@H](NC(=O)CNC(=O)[C@H](CCC(N)=O)NC(=O)[C@H](CO)NC(=O)[C@@H](N)Cc1ccc(O)cc1)[C@@H](C)O)[C@@H](C)O)C(=O)N[C@@H](CC(=O)O)C(=O)NC(C)(C)C(=O)N[C@@H](CCCCN)C(=O)N[C@@H](CCCNC(=N)N)C(=O)N[C@@H](C)C(=O)N[C@@H](CCC(N)=O)C(=O)N[C@@H](CCC(=O)O)C(=O)N[C@@H](Cc1ccccc1)C(=O)N[C@H](C(=O)NC(C)(C)C(=O)N[C@@H](Cc1c[nH]c2ccccc12)C(=O)N[C@@H](CC(C)C)C(=O)N[C@@H](CCC(=O)O)C(=O)N[C@@H](CC(=O)O)C(=O)N[C@@H](CCC(=O)O)C(=O)N1CCC[C@H]1C(=O)N[C@@H](CO)C(=O)N[C@@H](CO)C(=O)NCC(=O)N[C@@H](C)C(=O)N1CCC[C@H]1C(=O)N1CCC[C@H]1C(=O)N1CCC[C@H]1C(=O)N[C@@H](CO)C(=O)O)C(C)C [Compound A94] (H-YSQGTFTSDYSKYLD[Aib]KRAQEFV[Aib]WLEDEPSSGAPPPS-OH; N-terminus assumed),16.5 mL/min/kg,> 1 nM
